Results from PubChem BioAssay (NCI).
Where “and” joins values, the source holds several entries; their conditions need not be identical. Identical values can stand only once.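 Grown in 96-well plates, cells were treated for 48 hours with each compound at five concentrations. Insufficient inhibition: endpoint recorded as highest concentration tested. Here, GI50 denotes the concentration required for 50% inhibition of growth. TGI is the concentration that stops growth completely.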

What was measured:
Assay in all cases: NCI tumour cell line growth inhibition, 48 h
[1] = tested on: NCI-H522 lung
[2] = tested on: 786-0 renal
[3] = tested on: SK-OV-3 ovarian
[4] = tested on: NCI-H460 lung
[5] = tested on: OVCAR-5 ovarian
[6] = tested on: DLD-1 colon
[7] = tested on: HCC-2998 colon
[8] = tested on: UACC-257 melanoma
[9] = tested on: ACHN renal
[10] = tested on: A498 renal

| Structure (SMILES) | TGI [1] | TGI [2] | TGI [3] | TGI [4] | TGI [5] | TGI [6] | TGI [7] | TGI [8] | TGI [9] | TGI [10] | GI50 [2] [µM] | GI50 [3] [µM] | GI50 [4] [µM] | GI50 [5] [µM] | GI50 [7] [µM] | GI50 [8] [µM] | GI50 [9] [µM] | GI50 [10] [µM] | GI50 [1] [µM] | GI50 [6] [µM] |
| --- | --- | --- | --- | --- | --- | --- | --- | --- | --- | --- | --- | --- | --- | --- | --- | --- | --- | --- | --- | --- |
| O=C1OC(c2ccccc2)=N/C1=C\c1cccc2ccccc12 | > 100 µM | > 100 µM | > 100 µM | > 100 µM | > 100 µM | > 100 µM | > 100 µM | > 100 µM | > 100 µM | > 100 µM | – | – | – | – | – | – | – | – | – | – |
| CC(=O)/C(C)=N/NC(=O)c1ccccc1O | > 100 µM | > 100 µM | > 100 µM | > 100 µM | > 100 µM | > 10 µM | > 100 µM | > 100 µM | > 100 µM | > 100 µM | > 100 | > 100 | > 100 | > 100 | > 100 | > 100 | > 100 | > 10 | – | – |
| C[C@@H]1CC(=O)C2CCCC1C2=O (stereo partly specified) | > 100 µM | > 100 µM | > 100 µM | > 100 µM | > 100 µM | > 100 µM | > 100 µM | > 100 µM | > 100 µM | > 100 µM | – | – | – | – | – | – | – | – | – | – |
| COc1cccc2c1C(=O)c1c(O)c3c(c(O)c1C2=O)C[C@@](O)(C(C)=O)C[C@@H]3OC1OC(C)C(O)C(N)C1Br (stereo partly specified) | 0.449 µM and 0.324 µM | 0.62 µM and 0.168 µM | 0.288 µM and 0.323 µM | 0.115 µM and 0.118 µM | 0.663 µM and 0.704 µM | 0.175 µM and 0.607 µM | 0.327 µM and 0.489 µM | 0.487 µM and 1.14 µM | 0.174 µM and 0.139 µM | 0.532 µM and 0.228 µM | 0.0178 | 0.0314 | – | 0.0554 | 0.168 | 0.123 | – | 0.0657 | 0.0563 | 0.0679 |
| COc1ccc(C(=O)C(C(=O)CCC(=O)Nc2cccc(Cl)c2)c2ccc(OC)cc2)cc1 (stereo unspecified) | > 100 µM | > 100 µM | > 100 µM | > 100 µM | > 100 µM | > 100 µM | > 100 µM | > 100 µM | > 100 µM | > 100 µM | – | – | – | – | – | – | – | – | – | – |
| CCOC(=O)CC1(C(=O)OCC)c2[nH]c3ccccc3c2CCN1Cc1ccccc1 (stereo unspecified) | 28.1 µM | 31.8 µM | > 100 µM | 42.6 µM | 39.5 µM | 89.4 µM | 28.9 µM | 40.5 µM | 50.9 µM | 35.9 µM | – | – | – | – | – | – | – | – | – | – |
